Assay results taken from patent publication US11623919B2, “Heterocyclic P2X7 antagonists” (AXXAM S.P.A., priority 2017, dated 2023).

Legend:
Assay in all cases: Screen Quest Fluo-8 No Wash Calcium Assay (Bz-ATP evoked Ca2+ influx, FLIPR)
Assay type in all cases: cell-based
[1] = target: T1, P2X7 receptor (Mus musculus, UniProt Q9Z1M0); conditions: mP2X7; HEK-293 cells stably transfected with P2X7 receptor, Bz-ATP at EC80, Fluo-8 NW; potency ranges A-D
T1 construct: mP2X7 (IC50; nM); other: mP2X7; HEK-293 cells stably transfected with P2X7 receptor, Bz-ATP at EC80, Fluo-8 NW; potency
T1 sequence (Q9Z1M0 1-595): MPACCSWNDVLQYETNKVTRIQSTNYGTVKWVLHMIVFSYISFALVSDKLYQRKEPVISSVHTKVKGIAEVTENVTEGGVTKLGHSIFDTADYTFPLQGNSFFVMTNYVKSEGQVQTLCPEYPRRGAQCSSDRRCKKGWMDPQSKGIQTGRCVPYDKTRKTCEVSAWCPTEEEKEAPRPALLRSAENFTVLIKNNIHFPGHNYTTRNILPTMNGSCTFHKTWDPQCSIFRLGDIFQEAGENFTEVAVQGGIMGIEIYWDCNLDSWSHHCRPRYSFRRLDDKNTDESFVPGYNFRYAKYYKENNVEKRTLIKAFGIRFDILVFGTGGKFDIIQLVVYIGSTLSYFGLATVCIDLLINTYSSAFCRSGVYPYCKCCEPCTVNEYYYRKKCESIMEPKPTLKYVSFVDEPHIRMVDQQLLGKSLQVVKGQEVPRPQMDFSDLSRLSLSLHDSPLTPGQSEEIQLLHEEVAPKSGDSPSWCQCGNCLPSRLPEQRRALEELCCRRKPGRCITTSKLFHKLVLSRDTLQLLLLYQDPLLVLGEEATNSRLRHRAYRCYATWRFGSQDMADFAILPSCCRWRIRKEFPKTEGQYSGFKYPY
In short: (§1)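 Compounds were added to Fluo-8-loaded P2X7-transfected HEK-293 cells 5 min before an EC80 Bz-ATP challenge, and Ca2+ influx was then recorded for 3 min. Buffer held 0.3 mM Ca2+ and no Mg2+. Inhibition was normalised to A438079, giving IC50 values.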

[2] = target: T2, P2X7 receptor (Rattus norvegicus, UniProt Q64663); conditions: rP2X7; HEK-293 cells stably transfected with P2X7 receptor, Bz-ATP at EC80, Fluo-8 NW; potency ranges A-D
T2 construct: rP2X7 (IC50; nM); other: rP2X7; HEK-293 cells stably transfected with P2X7 receptor, Bz-ATP at EC80, Fluo-8 NW; potency
T2 sequence (Q64663 1-595): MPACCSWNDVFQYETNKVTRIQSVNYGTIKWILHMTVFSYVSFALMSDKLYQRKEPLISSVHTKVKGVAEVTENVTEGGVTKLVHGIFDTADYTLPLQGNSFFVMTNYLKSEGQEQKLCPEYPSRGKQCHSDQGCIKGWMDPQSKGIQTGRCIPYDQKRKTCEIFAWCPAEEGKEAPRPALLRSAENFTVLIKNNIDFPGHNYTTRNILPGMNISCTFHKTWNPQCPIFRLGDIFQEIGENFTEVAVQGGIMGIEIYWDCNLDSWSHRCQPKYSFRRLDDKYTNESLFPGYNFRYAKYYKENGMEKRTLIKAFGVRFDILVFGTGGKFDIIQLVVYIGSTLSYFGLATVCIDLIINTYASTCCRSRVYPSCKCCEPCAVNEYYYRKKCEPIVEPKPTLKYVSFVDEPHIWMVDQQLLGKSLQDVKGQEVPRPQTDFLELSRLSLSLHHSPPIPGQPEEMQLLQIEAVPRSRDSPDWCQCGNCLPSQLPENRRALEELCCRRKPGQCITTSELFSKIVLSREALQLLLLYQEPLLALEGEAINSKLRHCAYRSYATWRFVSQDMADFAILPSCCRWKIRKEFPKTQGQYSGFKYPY
In short: as §1

[3] = target: T3, P2X7 receptor (Homo sapiens, UniProt Q99572); design: hP2X7 (IC50; nM); other: hP2X7; HEK-293 cells stably transfected with P2X7 receptor, Bz-ATP at EC80, Fluo-8 NW; potency; conditions: hP2X7; HEK-293 cells stably transfected with P2X7 receptor, Bz-ATP at EC80, Fluo-8 NW; potency ranges A-D
T3 sequence (Q99572 1-595): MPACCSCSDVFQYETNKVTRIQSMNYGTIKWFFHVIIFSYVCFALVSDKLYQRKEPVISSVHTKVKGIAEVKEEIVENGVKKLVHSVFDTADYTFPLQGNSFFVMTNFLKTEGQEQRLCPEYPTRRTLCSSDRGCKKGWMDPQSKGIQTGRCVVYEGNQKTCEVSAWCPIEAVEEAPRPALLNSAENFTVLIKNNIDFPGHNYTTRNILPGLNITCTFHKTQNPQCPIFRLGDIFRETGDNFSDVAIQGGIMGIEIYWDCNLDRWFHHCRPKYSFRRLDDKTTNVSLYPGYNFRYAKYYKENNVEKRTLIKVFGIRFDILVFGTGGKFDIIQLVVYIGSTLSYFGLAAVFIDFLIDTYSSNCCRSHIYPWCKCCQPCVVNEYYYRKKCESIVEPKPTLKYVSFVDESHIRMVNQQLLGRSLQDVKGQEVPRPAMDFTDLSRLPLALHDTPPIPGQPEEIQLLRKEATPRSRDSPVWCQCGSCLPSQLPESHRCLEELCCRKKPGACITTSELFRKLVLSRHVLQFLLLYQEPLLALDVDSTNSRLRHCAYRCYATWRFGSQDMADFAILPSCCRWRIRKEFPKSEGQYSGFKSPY
In short: as §1

| SMILES | IC50 [1] [nM] | IC50 [2] [nM] | IC50 [3] [nM] |
| --- | --- | --- | --- |
| Cc1cc(Cn2c(CC3CCC(F)(F)CC3)noc2=O)no1 [Example 169, 3-[(4,4-difluorocyclohexyl)methyl]-4-[(5-methyl-1,2-oxazol-3-yl)methyl]-4,5-dihydro-1,2,4-oxadiazol-5-one] | > 10000 | 1000 to 10000 | > 10000 |
| O=c1onc(CC2CCC(F)(F)CC2)n1Cc1ccccc1Cl [Example 170, 4-[(2-chlorophenyl)methyl]-3-[(4,4-difluorocyclohexyl)methyl]-4,5-dihydro-1,2,4-oxadiazol-5-one] | 200 to 1000 | < 200 | < 200 |
| Cc1cc(F)ccc1Cn1c(CC2CCC(F)(F)CC2)noc1=O [Example 171, 3-[(4,4-difluorocyclohexyl)methyl]-4-[(4-fluoro-2-methylphenyl)methyl]-4,5-dihydro-1,2,4-oxadiazol-5-one] | 1000 to 10000 | 200 to 1000 | 1000 to 10000 |
| O=c1onc(CC2CCC(F)(F)CC2)n1CCc1ccccc1 [Example 172, 3-[(4,4-difluorocyclohexyl)methyl]-4-(2-phenylethyl)-4,5-dihydro-1,2,4-oxadiazol-5-one] | > 10000 | 1000 to 10000 | > 10000 |
| O=c1onc(Cc2c(F)cccc2Cl)n1CC1CC2C(C1)C2(F)F (stereo not drawn) [Example 173, 3-[(2-chloro-6-fluorophenyl)methyl]-4-({6,6-difluorobicyclo[3.1.0]-hexan-3-yl}methyl)-4,5-dihydro-1,2,4-oxadiazol-5-one] | 200 to 1000 | < 200 | < 200 |
| Cn1c(Cc2c(F)cccc2Cl)noc1=O [Example 174, 3-[(2-chloro-6-fluorophenyl)methyl]-4-methyl-4,5-dihydro-1,2,4-oxadiazol-5-one] | > 10000 | > 10000 | > 10000 |
| CCn1c(Cc2c(F)cccc2Cl)noc1=O [Example 175, 3-[(2-chloro-6-fluorophenyl)methyl]-4-ethyl-4,5-dihydro-1,2,4-oxadiazol-5-one] | > 10000 | > 10000 | > 10000 |
| CCCn1c(Cc2c(F)cccc2Cl)noc1=O [Example 176, 3-[(2-chloro-6-fluorophenyl)methyl]-4-propyl-4,5-dihydro-1,2,4-oxadiazol-5-one] | > 10000 | > 10000 | > 10000 |
| CCCCn1c(Cc2c(F)cccc2Cl)noc1=O [Example 177, 4-butyl-3-[(2-chloro-6-fluorophenyl)methyl]-4,5-dihydro-1,2,4-oxadiazol-5-one] | > 10000 | 1000 to 10000 | 1000 to 10000 |
| CC(C)Cn1c(Cc2c(F)cccc2Cl)noc1=O [Example 178, 3-[(2-chloro-6-fluorophenyl)methyl]-4-(2-methylpropyl)-4,5-dihydro-1,2,4-oxadiazol-5-one] | > 10000 | > 10000 | 1000 to 10000 |
| O=c1onc(Cc2c(F)cccc2Cl)n1CCCC1CCCCC1 [Example 179, 3-[(2-chloro-6-fluorophenyl)methyl]-4-(3-cyclohexylpropyl)-4,5-dihydro-1,2,4-oxadiazol-5-one] | 1000 to 10000 | > 10000 | 1000 to 10000 |
| O=c1onc(Cc2c(F)cccc2Cl)n1CCCN1CCCCC1 [Example 180, 3-[(2-chloro-6-fluorophenyl)methyl]-4-[3-(piperidin-1-yl)propyl]-4,5-dihydro-1,2,4-oxadiazol-5-one] | > 10000 | > 10000 | > 10000 |
| O=c1onc(Cc2c(F)cccc2Cl)n1CCN1CCC(F)(F)CC1 [Example 181, 3-[(2-chloro-6-fluorophenyl)methyl]-4-[2-(4,4-difluoropiperidin-1-yl)ethyl]-4,5-dihydro-1,2,4-oxadiazol-5-one] | 1000 to 10000 | 1000 to 10000 | 200 to 1000 |
| O=c1onc(Cc2c(F)cccc2Cl)n1CCCN1CCC(F)(F)CC1 [Example 182, 3-[(2-chloro-6-fluorophenyl)methyl]-4-[3-(4,4-difluoropiperidin-1-yl)propyl]-4,5-dihydro-1,2,4-oxadiazol-5-one] | > 10000 | > 10000 | 1000 to 10000 |
| O=c1onc(Cc2c(F)cccc2Cl)n1CC1CC=CC1 [Example 183, 3-[(2-chloro-6-fluorophenyl)methyl]-4-(cyclopent-3-en-1-ylmethyl)-4,5-dihydro-1,2,4-oxadiazol-5-one] | 1000 to 10000 | 200 to 1000 | 200 to 1000 |
| O=c1onc(Cc2c(F)cccc2Cl)n1CC1CCC(C(F)(F)F)CC1 (stereo not drawn) [Example 184, 3-[(2-chloro-6-fluorophenyl)methyl]-4-{[4-(trifluoromethyl)cyclohexyl]methyl}-1,2,4-oxadiazol-5(4H)-one] | < 200 | < 200 | < 200 |
| O=c1onc(Cc2c(F)cccc2Cl)n1CC1CCC(F)CC1 (stereo not drawn) [Example 185, 3-[(2-chloro-6-fluorophenyl)methyl]-4-[(4-fluorocyclohexyl)methyl]-4,5-dihydro-1,2,4-oxadiazol-5-one] | < 200 | < 200 | < 200 |
| CC(c1ccccc1)n1c(CC2CCC(F)(F)CC2)noc1=O (stereo not drawn) [Example 188, 3-[(4,4-difluorocyclohexyl)methyl]-4-(1-phenylethyl)-4,5-dihydro-1,2,4-oxadiazol-5-one] | 1000 to 10000 | 1000 to 10000 | 1000 to 10000 |
| O=c1onc(CC2CCC(F)(F)CC2)n1Cc1ccc(C(F)(F)F)nc1 [Example 189, 3-[(4,4-difluorocyclohexyl)methyl]-4-{[6-(trifluoromethyl)pyridin-3-yl]methyl}-4,5-dihydro-1,2,4-oxadiazol-5-one] | > 10000 | > 10000 | > 10000 |
| O=c1onc(CC2CCC(F)(F)CC2)n1Cc1ncc(F)cn1 [Example 190, 3-[(4,4-difluorocyclohexyl)methyl]-4-[(5-fluoropyrimidin-2-yl)methyl]-4,5-dihydro-1,2,4-oxadiazol-5-one] | > 10000 | > 10000 | > 10000 |
| O=c1onc(CC2CCC(F)(F)CC2)n1Cc1nccs1 [Example 191, 3-[(4,4-difluorocyclohexyl)methyl]-4-(1,3-thiazol-2-ylmethyl)-4,5-dihydro-1,2,4-oxadiazol-5-one] | > 10000 | 200 to 1000 | 1000 to 10000 |
